Measured values as given in the CheMixHub viscosity set.
Where “and” joins values, the source holds several entries; their conditions need not be identical. Equal entries are not always repeated.

Experiment: xn = mol fraction of the nth substance listed

CC(C)CCCC(C)CCCC(C)CCCC(C)C (stereo not drawn) + CCCCCCCCCCCCCCCC
298.15 K, 101.33 kPa
Settings	viscosity [mPa·s]
x2 = 0.0966	5.129
x2 = 0.1996	4.843
x2 = 0.2995	4.565
x2 = 0.3995	4.303
x2 = 0.4994	4.063
x2 = 0.5995	3.839
x2 = 0.6995	3.631
x2 = 0.8001	3.438
x2 = 0.85	3.332

CC(C)CCCC(C)CCCC(C)CCCCC(C)CCCC(C)CCCC(C)C (stereo not drawn) + CCCCCCCCCCCCCCCC
298.15 K, 101.33 kPa
Settings	viscosity [mPa·s]
x2 = 0.045	26.05
x2 = 0.099	23.59
x2 = 0.1473	21.54
x2 = 0.2008	19.45
x2 = 0.2977	16.16
x2 = 0.4495	11.84
x2 = 0.6011	8.569
x2 = 0.8001	5.307

CCCCCCCCCCCCO + CCCCCCCCCCCO
viscosity [mPa·s], 101.8 kPa
Settings	x2 = 0.105	x2 = 0.3165	x2 = 0.5196	x2 = 0.7165	x2 = 0.9076
298.15 K	16.69	16.05	15.53	15	14.51
308.15 K	11.29	10.91	10.58	10.23	9.905
318.15 K	7.895	7.633	7.418	7.19	6.977

CCCCCCCCCCCCO + CCCCCCCCCCO
viscosity [mPa·s], 101.8 kPa
Settings	x2 = 0.1151	x2 = 0.3347	x2 = 0.5407	x2 = 0.7346	x2 = 0.9162
298.15 K	16.35	15.13	14.02	13.03	12.15
308.15 K	11.08	10.31	9.627	8.957	8.384
318.15 K	7.752	7.245	6.775	6.357	5.973

CCCCCCCCCCCCO + CCCCCCCCCO
viscosity [mPa·s], 101.8 kPa
Settings	x2 = 0.1246	x2 = 0.3557	x2 = 0.5641	x2 = 0.7516	x2 = 0.9218
298.15 K	15.91	14.07	12.49	11.2	10.02
308.15 K	10.86	9.686	8.677	7.814	7.056
318.15 K	7.599	6.831	6.182	5.591	5.091

CC(C)CCCC(C)CCCC(C)CCCCC(C)CCCC(C)CCCC(C)C (stereo not drawn) + CCCCCCCCO
Settings	viscosity [mPa·s]
298.15 K, 101 kPa, x2 = 0.5974	13.55

CCCCCCCCCCCCO + CCCCCCCCO
viscosity [mPa·s], 101.8 kPa
Settings	x2 = 0.1377	x2 = 0.3798	x2 = 0.589	x2 = 0.7701	x2 = 0.9281
298.15 K	15.08	12.91	11.11	9.509	8.204
308.15 K	10.21	8.958	7.745	6.704	5.873
318.15 K	7.201	6.357	5.553	4.856	4.284

CCCCCCCCCCCCO + CCCCCCCO
viscosity [mPa·s], 101.8 kPa
Settings	x2 = 0.1535	x2 = 0.4063	x2 = 0.6158	x2 = 0.7897	x2 = 0.937
298.15 K	14.93	11.89	9.619	7.876	6.209
308.15 K	10.25	8.286	6.789	5.642	4.516
318.15 K	7.217	5.917	4.913	4.132	3.362

CCCCCCCCCCCCO + CCCCCCO
viscosity [mPa·s], 101.8 kPa
Settings	x2 = 0.1701	x2 = 0.4377	x2 = 0.6449	x2 = 0.8097	x2 = 0.9429
298.15 K	14.45	10.7	8.172	6.334	5.053
308.15 K	9.897	7.517	5.841	4.64	3.754
318.15 K	6.978	5.411	4.279	3.455	2.829

Cc1ccc(C)cc1 + CCCCCCO
viscosity, 101 kPa
Settings	x2 = 0.0999	x2 = 0.1999	x2 = 0.2999	x2 = 0.4001	x2 = 0.4997	x2 = 0.6	x2 = 0.7	x2 = 0.8	x2 = 0.8999
303.15 K	0.616 mPa·s and 0.616 mPa·s	0.693 mPa·s and 0.693 mPa·s	0.799 mPa·s and 0.799 mPa·s	0.946 mPa·s and 0.946 mPa·s	1.148 mPa·s and 1.148 mPa·s	1.42 mPa·s and 1.42 mPa·s	1.801 mPa·s and 1.801 mPa·s	2.323 mPa·s and 2.323 mPa·s	3.004 mPa·s and 3.004 mPa·s
313.15 K	0.544 mPa·s and 0.544 mPa·s	0.605 mPa·s and 0.605 mPa·s	0.689 mPa·s and 0.689 mPa·s	0.802 mPa·s and 0.802 mPa·s	0.956 mPa·s and 0.956 mPa·s	1.156 mPa·s and 1.156 mPa·s	1.433 mPa·s and 1.433 mPa·s	1.806 mPa·s and 1.806 mPa·s	2.295 mPa·s and 2.295 mPa·s
323.15 K	0.485 mPa·s and 0.485 mPa·s	0.533 mPa·s and 0.533 mPa·s	0.6 mPa·s and 0.6 mPa·s	0.689 mPa·s and 0.689 mPa·s	0.807 mPa·s and 0.807 mPa·s	0.958 mPa·s and 0.958 mPa·s	1.161 mPa·s and 1.161 mPa·s	1.433 mPa·s and 1.433 mPa·s	1.788 mPa·s and 1.788 mPa·s

Cc1ccc(C)cc1 + CCCCCO
293.15 K, 101.33 kPa
Settings	viscosity [mPa·s]
x2 = 0.1458	0.727
x2 = 0.2275	0.792
x2 = 0.2722	0.836
x2 = 0.3455	0.925
x2 = 0.4093	1.022
x2 = 0.4819	1.164
x2 = 0.5534	1.356
x2 = 0.6142	1.543
x2 = 0.7185	1.973
x2 = 0.7687	2.232
x2 = 0.8498	2.747
x2 = 0.9425	3.494

O=Cc1ccccc1 + CCCCCO
viscosity [mPa·s], 101.33 kPa
Settings	x1 = 0.1001	x1 = 0.2014	x1 = 0.3028	x1 = 0.4151	x1 = 0.5074	x1 = 0.599	x1 = 0.7004	x1 = 0.8063	x1 = 0.9052
293.15 K	3.688	3.307	2.964	2.626	2.377	2.153	1.93	1.722	1.547
303.15 K	2.699	2.481	2.281	2.078	1.924	1.783	1.639	1.501	1.383
313.15 K	2.149	2.007	1.874	1.737	1.632	1.534	1.432	1.334	1.247
323.15 K	1.279	1.254	1.229	1.202	1.181	1.16	1.137	1.113	1.092
